We go through five compounds from patent EP4596574A1, “GLP-1/GCG/GIP TRIPLE-RECEPTOR AGONIST AND USE THEREOF” (Sunshine Lake Pharma Co., Ltd., priority 2022, dated 2024).

What all share (type): cell-based
The target of experiment [1] is T1, GLP-1R (Homo sapiens, UniProt P43220).
T1 construct: expressed in transfected cells; host or cells: HEK293 (HEK293-GLP-1R)
In words: In vitro cell activity, cAMP production in HEK293 cells expressing GLP-1R. The following applies: HEK293-GLP-1R cells, cAMP; read-out: GLP-1R (EC50). The method in brief: (§1)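 Assay format: cells at 4×10^5 cells/mL, cAMP sensed by d2/cryptate FRET pair, dual-wavelength read at 665 and 620 nm. Potency expressed as EC50 from nonlinear fitting.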
On the technique in general: cAMP levels reflect the balance of adenylyl cyclase and phosphodiesterase activity.

Experiment [2] concerns the target T2, GCGR (Homo sapiens, UniProt P47871).
T2 construct: expressed in transfected cells; host or cells: HEK293 (HEK293-GCGR)
Put plainly: In vitro cell activity, cAMP production in HEK293 cells expressing GCGR. The following applies: HEK293-GCGR cells, cAMP; read-out: GCGR (EC50). In outline:
as §1

Experiment [3] deals with T3, GIPR (Homo sapiens, UniProt P48546).
T3 construct: expressed in transfected cells; host or cells: HEK293 (HEK293-GIPR)
T3 sequence (P48546 22-466): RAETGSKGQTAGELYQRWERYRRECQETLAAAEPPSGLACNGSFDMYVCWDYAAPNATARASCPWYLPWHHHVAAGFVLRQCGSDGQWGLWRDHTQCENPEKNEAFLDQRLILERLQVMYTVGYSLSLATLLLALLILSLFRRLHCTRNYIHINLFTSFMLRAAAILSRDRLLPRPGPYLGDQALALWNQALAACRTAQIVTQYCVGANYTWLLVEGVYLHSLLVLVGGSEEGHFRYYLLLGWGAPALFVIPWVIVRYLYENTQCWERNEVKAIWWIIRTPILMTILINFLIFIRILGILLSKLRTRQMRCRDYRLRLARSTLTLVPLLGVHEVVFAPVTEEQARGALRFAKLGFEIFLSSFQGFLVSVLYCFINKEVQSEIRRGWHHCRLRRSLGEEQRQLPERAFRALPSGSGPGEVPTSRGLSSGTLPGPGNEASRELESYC
In words: In vitro cell activity, cAMP production in HEK293 cells expressing GIPR. The following applies: HEK293-GIPR cells, cAMP; read-out: GIPR (EC50). In outline:
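cAMP accumulation is quantified by homogeneous TR-FRET (cAMP-d2 plus anti-cAMP cryptate) in GIPR-expressing HEK293 cells seeded from a 4×10^5 cells/mL suspension and treated with compound. The signal ratio is plotted against concentration and fitted to a four-parameter curve to give EC50.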

T1 sequence (P43220 24-463, species assumed): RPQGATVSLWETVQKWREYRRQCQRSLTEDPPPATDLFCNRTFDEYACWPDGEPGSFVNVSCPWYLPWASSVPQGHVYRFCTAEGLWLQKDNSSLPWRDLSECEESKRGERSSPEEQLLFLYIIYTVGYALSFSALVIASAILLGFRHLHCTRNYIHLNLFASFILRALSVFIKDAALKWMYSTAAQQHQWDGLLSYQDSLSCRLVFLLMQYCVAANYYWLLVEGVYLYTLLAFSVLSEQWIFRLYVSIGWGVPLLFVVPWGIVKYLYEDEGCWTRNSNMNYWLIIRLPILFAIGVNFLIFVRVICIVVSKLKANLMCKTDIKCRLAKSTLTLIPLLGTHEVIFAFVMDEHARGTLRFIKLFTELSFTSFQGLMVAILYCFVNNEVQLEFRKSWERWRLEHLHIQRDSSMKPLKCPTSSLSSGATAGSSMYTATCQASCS
T2 sequence (P47871 26-477, species assumed): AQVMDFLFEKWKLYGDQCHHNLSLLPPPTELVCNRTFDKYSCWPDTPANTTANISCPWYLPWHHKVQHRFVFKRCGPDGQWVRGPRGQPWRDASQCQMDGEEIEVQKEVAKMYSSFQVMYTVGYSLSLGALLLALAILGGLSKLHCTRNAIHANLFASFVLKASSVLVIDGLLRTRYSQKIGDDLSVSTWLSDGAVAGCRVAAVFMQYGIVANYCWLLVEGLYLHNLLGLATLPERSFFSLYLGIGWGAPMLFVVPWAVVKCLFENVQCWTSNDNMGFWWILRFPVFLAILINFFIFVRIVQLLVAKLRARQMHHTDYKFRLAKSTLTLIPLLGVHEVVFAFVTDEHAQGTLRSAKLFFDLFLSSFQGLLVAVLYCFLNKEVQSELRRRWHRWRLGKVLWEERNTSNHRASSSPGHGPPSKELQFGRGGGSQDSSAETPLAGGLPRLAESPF

As for `CC[C@H](C)[C@H](NC(=O)[C@H](Cc1ccccc1)NC(=O)[C@H](C)NC(=O)[C@H](CCC(N)=O)NC(=O)[C@H](CCC(N)=O)NC(=O)[C@H](CCCNC(=N)N)NC(=O)[C@H](CCCCNC(=O)COCCOCCNC(=O)CC[C@H](NC(=O)CCCCCCCCCCCCCCCCCCC(=O)O)C(=O)O)NC(=O)[C@H](CCCNC(=N)N)NC(=O)[C@H](CC(=O)O)NC(=O)[C@H](CC(C)C)NC(=O)[C@H](CC(C)C)NC(=O)[C@@H](NC(=O)[C@H](CO)NC(=O)[C@H](Cc1ccc(O)cc1)NC(=O)[C@H](CC(=O)O)NC(=O)[C@H](CO)NC(=O)[C@@H](NC(=O)[C@](C)(Cc1ccccc1F)NC(=O)[C@@H](NC(=O)CNC(=O)[C@H](CCC(N)=O)NC(=O)C(C)(C)NC(=O)[C@@H](N)Cc1ccc(O)cc1)[C@@H](C)O)[C@@H](C)O)[C@@H](C)CC)C(=O)N[C@@H](CCC(=O)O)C(=O)N[C@@H](Cc1ccc(O)cc1)C(=O)N[C@@H](CC(C)C)C(=O)N[C@@H](CC(C)C)C(=O)N[C@@H](C)C(=O)NCC(=O)NCC(=O)N1CCC[C@H]1C(=O)N[C@@H](CO)C(=O)N[C@@H](CO)C(=O)NCC(=O)N[C@@H](C)C(=O)N1CCC[C@H]1C(=O)N1CCC[C@H]1C(=O)N1CCC[C@H]1C(=O)N[C@@H](CO)C(=O)O` [HEC-PT128], the values for the half-maximal effective concentration (EC50) in experiment [1], in experiment [2] and in experiment [3] were 0.38 nM, 0.128 nM and 0.0608 nM, respectively.
The like results for `CC[C@H](C)[C@H](NC(=O)[C@H](CO)NC(=O)[C@H](Cc1ccc(O)cc1)NC(=O)[C@H](CC(=O)O)NC(=O)[C@H](CO)NC(=O)[C@@H](NC(=O)[C@](C)(Cc1ccccc1F)NC(=O)[C@@H](NC(=O)CNC(=O)[C@H](CCC(N)=O)NC(=O)C(C)(C)NC(=O)[C@@H](N)Cc1ccc(O)cc1)[C@@H](C)O)[C@@H](C)O)C(=O)N[C@@H](CC(C)C)C(=O)N[C@@H](CC(C)C)C(=O)N[C@@H](CC(=O)O)C(=O)N[C@@H](CCC(=O)O)C(=O)N[C@@H](CCCCNC(=O)COCCOCCNC(=O)CC[C@H](NC(=O)CCCCCCCCCCCCCCCCC(=O)O)C(=O)O)C(=O)N[C@@H](CCCCN)C(=O)N[C@@H](CCC(N)=O)C(=O)NC(C)(C)C(=O)N[C@@H](CCC(=O)O)C(=O)N[C@@H](Cc1ccccc1)C(=O)N[C@H](C(=O)N[C@@H](CCC(=O)O)C(=O)N[C@@H](Cc1c[nH]c2ccccc12)C(=O)N[C@@H](CC(C)C)C(=O)N[C@@H](CC(C)C)C(=O)N[C@@H](C)C(=O)NCC(=O)NCC(=O)N1CCC[C@H]1C(=O)N[C@@H](CO)C(=O)N[C@@H](CO)C(=O)NCC(=O)N[C@@H](C)C(=O)N1CCC[C@H]1C(=O)N1CCC[C@H]1C(=O)N1CCC[C@H]1C(=O)N[C@@H](CO)C(N)=O)[C@@H](C)CC` [HEC-PT129] were, in that order, 0.141 nM, 0.525 nM and 0.0439 nM.
Turning to `CC[C@H](C)[C@H](NC(=O)[C@H](Cc1ccccc1)NC(=O)[C@H](C)NC(=O)[C@H](CCCCN)NC(=O)[C@H](CCC(N)=O)NC(=O)[C@H](CCCCN)NC(=O)[C@H](CCCCNC(=O)COCCOCCNC(=O)CC[C@H](NC(=O)CCCCCCCCCCCCCCCCC(=O)O)C(=O)O)NC(=O)[C@H](CCC(=O)O)NC(=O)[C@H](CC(=O)O)NC(=O)[C@H](CC(C)C)NC(=O)[C@H](CC(C)C)NC(=O)[C@@H](NC(=O)[C@H](CO)NC(=O)[C@H](Cc1ccc(O)cc1)NC(=O)[C@H](CC(=O)O)NC(=O)[C@H](CO)NC(=O)[C@@H](NC(=O)[C@](C)(Cc1ccccc1F)NC(=O)[C@@H](NC(=O)CNC(=O)[C@H](CCC(N)=O)NC(=O)C(C)(C)NC(=O)[C@@H](N)Cc1ccc(O)cc1)[C@@H](C)O)[C@@H](C)O)[C@@H](C)CC)C(=O)N[C@@H](CCC(=O)O)C(=O)N[C@@H](Cc1ccc(O)cc1)C(=O)N[C@@H](CC(C)C)C(=O)N[C@@H](CC(C)C)C(=O)N[C@@H](C)C(=O)NCC(=O)NCC(=O)N1CCC[C@H]1C(=O)N[C@@H](CO)C(=O)N[C@@H](CO)C(=O)NCC(=O)N[C@@H](C)C(=O)N1CCC[C@H]1C(=O)N1CCC[C@H]1C(=O)N1CCC[C@H]1C(=O)N[C@@H](CO)C(N)=O` [HEC-PT130], the EC50 – broadly, the concentration giving half of the maximal effect – in experiment [1] was 0.17 nM; in experiment [2] it was 4.86 nM; in experiment [3], 0.541 nM.
With `CC[C@H](C)[C@H](NC(=O)[C@H](Cc1ccccc1)NC(=O)[C@H](C)NC(=O)[C@H](CCCCN)NC(=O)[C@H](CCC(N)=O)NC(=O)[C@H](CCCCN)NC(=O)[C@H](CCCCNC(=O)COCCOCCNC(=O)CC[C@H](NC(=O)CCCCCCCCCCCCCCCCCCC(=O)O)C(=O)O)NC(=O)[C@H](CCC(=O)O)NC(=O)[C@H](CC(=O)O)NC(=O)[C@H](CC(C)C)NC(=O)[C@H](CC(C)C)NC(=O)[C@@H](NC(=O)[C@H](CO)NC(=O)[C@H](Cc1ccc(O)cc1)NC(=O)[C@H](CC(=O)O)NC(=O)[C@H](CO)NC(=O)[C@@H](NC(=O)[C@](C)(Cc1ccccc1F)NC(=O)[C@@H](NC(=O)CNC(=O)[C@H](CCC(N)=O)NC(=O)C(C)(C)NC(=O)[C@@H](N)Cc1ccc(O)cc1)[C@@H](C)O)[C@@H](C)O)[C@@H](C)CC)C(=O)N[C@@H](CCC(=O)O)C(=O)N[C@@H](Cc1ccc(O)cc1)C(=O)N[C@@H](CC(C)C)C(=O)N[C@@H](CC(C)C)C(=O)N[C@@H](C)C(=O)NCC(=O)NCC(=O)N1CCC[C@H]1C(=O)N[C@@H](CO)C(=O)N[C@@H](CO)C(=O)NCC(=O)N[C@@H](C)C(=O)N1CCC[C@H]1C(=O)N1CCC[C@H]1C(=O)N1CCC[C@H]1C(=O)N[C@@H](CO)C(N)=O` [HEC-PT131], the EC50 in experiment [1] was 0.249 nM; in experiment [2] it was 8.07 nM; in experiment [3] it was 1.13 nM.
`CC[C@H](C)[C@H](NC(=O)[C@H](Cc1ccccc1)NC(=O)[C@H](C)NC(=O)[C@H](CCCNC(=N)N)NC(=O)[C@H](CCC(N)=O)NC(=O)[C@H](CCCNC(=N)N)NC(=O)[C@H](CCCCNC(=O)COCCOCCNC(=O)CC[C@H](NC(=O)CCCCCCCCCCCCCCCCC(=O)O)C(=O)O)NC(=O)[C@H](CCC(=O)O)NC(=O)[C@H](CC(=O)O)NC(=O)[C@H](CC(C)C)NC(=O)[C@H](CC(C)C)NC(=O)[C@@H](NC(=O)[C@H](CO)NC(=O)[C@H](Cc1ccc(O)cc1)NC(=O)[C@H](CC(=O)O)NC(=O)[C@H](CO)NC(=O)[C@@H](NC(=O)[C@](C)(Cc1ccccc1F)NC(=O)[C@@H](NC(=O)CNC(=O)[C@H](CCC(N)=O)NC(=O)C(C)(C)NC(=O)[C@@H](N)Cc1ccc(O)cc1)[C@@H](C)O)[C@@H](C)O)[C@@H](C)CC)C(=O)N[C@@H](CCC(=O)O)C(=O)N[C@@H](Cc1ccc(O)cc1)C(=O)N[C@@H](CC(C)C)C(=O)N[C@@H](CC(C)C)C(=O)N[C@@H](C)C(=O)NCC(=O)NCC(=O)N1CCC[C@H]1C(=O)N[C@@H](CO)C(=O)N[C@@H](CO)C(=O)NCC(=O)N[C@@H](C)C(=O)N1CCC[C@H]1C(=O)N1CCC[C@H]1C(=O)N1CCC[C@H]1C(=O)N[C@@H](CO)C(=O)O` [HEC-PT134]: the EC50 is 0.146 nM in experiment [1], 0.862 nM in experiment [2] and 0.207 nM in experiment [3].
